Broadly, the IC50 is the concentration needed to halve the response being measured.

SMILES strings stand for the structures. Counter-ions that a name gives are not always drawn.

Experimental findings from patent US8362065B2, “Carbazole carboxamide compounds useful as kinase inhibitors” (Bristol-Myers Squibb Company, priority 2008, dated 2013) are described below.

For the assay, the target named is T1, human recombinant Btk (Homo sapiens, UniProt Q06187).
T1 construct: purchased Invitrogen Corporation
Description: Human Recombinant Btk Enzyme Assay. The class given is biochemical. To be noted: human recombinant Btk 1 nM, ATP 20 μM, 60 min at room temperature; read-out: IC50 for Inhibition of Btk.

T1 sequence (Q06187 whole entry): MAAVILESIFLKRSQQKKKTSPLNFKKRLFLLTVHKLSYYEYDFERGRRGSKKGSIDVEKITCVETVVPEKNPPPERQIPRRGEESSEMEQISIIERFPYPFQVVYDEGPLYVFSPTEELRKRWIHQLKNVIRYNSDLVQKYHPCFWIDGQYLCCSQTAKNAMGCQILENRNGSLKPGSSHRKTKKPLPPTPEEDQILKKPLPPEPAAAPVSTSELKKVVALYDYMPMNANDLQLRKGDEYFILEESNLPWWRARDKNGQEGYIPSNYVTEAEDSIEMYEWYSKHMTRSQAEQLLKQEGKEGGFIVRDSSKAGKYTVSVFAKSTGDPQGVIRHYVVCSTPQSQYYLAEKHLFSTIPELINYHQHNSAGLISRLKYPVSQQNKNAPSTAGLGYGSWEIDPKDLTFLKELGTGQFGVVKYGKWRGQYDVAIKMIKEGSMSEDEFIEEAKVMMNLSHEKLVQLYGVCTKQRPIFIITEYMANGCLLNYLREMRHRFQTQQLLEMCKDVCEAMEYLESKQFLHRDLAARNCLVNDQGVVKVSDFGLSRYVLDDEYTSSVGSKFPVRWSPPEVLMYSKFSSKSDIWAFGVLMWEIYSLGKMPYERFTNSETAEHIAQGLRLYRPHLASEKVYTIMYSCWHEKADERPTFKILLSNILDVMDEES

As for `Cc1c(-c2ccc(C(N)=O)c3[nH]c4c(c23)CCC(C(C)(C)O)C4)cccc1-n1cnc2cccc(F)c2c1=O` (centres unmarked) [Example 76-41], the half-maximal inhibitory concentration (IC50) came to 0.018 µM. Next, `Cc1c(NC(=O)c2ccc(F)cc2)cccc1-c1ccc(C(N)=O)c2[nH]c3cc(NC(=O)CCN4CCOCC4)ccc3c12` [Example 57-18]: 0.0022 µM; `CN1CCN(C(=O)c2ccc3c(c2)[nH]c2c(C(N)=O)ccc(-c4nccc5ccccc45)c23)CC1` [Example 2-2, 4-(isoquinolin-1-yl)-7-(4-methylpiperazine-1-carbonyl)-9H-carbazole-1-carboxamide]: 1.3 µM; `Cc1ccc2c(c1)C(=O)N(c1cccc(-c3ccc(C(N)=O)c4[nH]c5cc(C(O)CO)ccc5c34)c1C)C2` (centres unmarked) [Example 70-11, 7-(1,2-dihydroxyethyl)-4-(2-methyl-3-(6-methyl-1-oxoisoindolin-2-yl)phenyl)-9H-carbazole-1-carboxamide]: 0.0014 µM.

Regarding `Cc1ccc2c(c1)C(=O)N(c1cccc(-c3ccc(C(N)=O)c4[nH]c5cc(N6CCC(C)(C)C6=O)ccc5c34)c1C)C2` [Example 66-37], the IC50 is 0.015 µM. Then `CCNC(=O)c1cc2c(-c3ccc(C(N)=O)c4[nH]c5cc(C(=O)N6CCN(C)CC6)ccc5c34)cccc2[nH]1` [Example 2-24, 4-(2-(ethylcarbamoyl)-1H-indol-4-yl)-7-(4-methylpiperazine-1-carbonyl)-9H-carbazole-1-carboxamide], with 0.8 µM. For the compound `Cc1ccc2c(c1)CN(c1cncc(-c3ccc(C(N)=O)c4[nH]c5cc(NC(C)C)ccc5c34)c1C)C2=O` [Example 66-2, 7-(isopropylamino)-4-(4-methyl-5-(5-methyl-1-oxoisoindolin-2-yl)pyridin-3-yl)-9H-carbazole-1-carboxamide], the IC50 turned out to be 0.016 µM. Next, `CC(C)(C)OC(=O)n1cc(-c2ccc(C(N)=O)c3[nH]c4c(c23)CCC(C(=O)NC2CCOCC2)C4)cn1` (centres unmarked) [Example 3-116]: 1.6 µM.

For `Cc1ccc2c(c1)C(=O)N(c1cccc(-c3ccc(C(N)=O)c4[nH]c5cc(C(O)COC(=O)C(C)N)ccc5c34)c1C)C2` (centres unmarked) [Example 83-4, 2-(8-carbamoyl-5-(2-methyl-3-(6-methyl-1-oxoisoindolin-2-yl)phenyl)-9H-carbazol-2-yl)-2-hydroxyethyl 2-aminopropanoate], the IC50 is 0.0011 µM. Next, `Cc1c(-c2ccc(C(N)=O)c3[nH]c4cc(CNC(=O)CO)ccc4c23)cccc1N1Cc2ccccc2C1=O` [Example 34-2, 7-((2-hydroxyacetamido)methyl)-4-(2-methyl-3-(1-oxoisoindolin-2-yl)phenyl)-9H-carbazole-1-carboxamide]: 0.002 µM; `Cc1c(NC(=O)c2cccnc2)cccc1-c1ccc(C(N)=O)c2[nH]c3cc(C(=O)N4CCN(C)CC4)ccc3c12` [Example 5-7]: 0.018 µM.

Take `CN1CCN(C(=O)c2ccc3c(c2)[nH]c2c(C(N)=O)ccc(-c4ccccc4Cl)c23)CC1` [Example 3-69]: the IC50 turned out to be 0.015 µM. Then `CN1CCN(C(=O)c2ccc3c(c2)[nH]c2c(C(N)=O)ccc(-c4cc(Cl)ccc4F)c23)CC1` [Example 2-13, 4-(5-chloro-2-fluorophenyl)-7-(4-methylpiperazine-1-carbonyl)-9H-carbazole-1-carboxamide], with 0.015 µM; and `Cc1c(NC(=O)C2(C#N)CC2)cccc1-c1ccc(C(N)=O)c2[nH]c3cc(C(=O)N4CCN(C)CC4)ccc3c12` [Example 5-73, 4-(3-(1-cyanocyclopropanecarboxamido)-2-methylphenyl)-7-(4-methylpiperazine-1-carbonyl)-9H-carbazole-1-carboxamide (prepared as the TFA salt)], with 0.018 µM.

Regarding `Cc1c(-c2ccc(C(N)=O)c3[nH]c4cc(C(=O)N5CCN(C)CC5)ccc4c23)cccc1N(C(C)C)S(C)(=O)=O` (single isomer, unassigned) [Example 10-2, 4-(3-(N-isopropylmethylsulfonamido)-2-methylphenyl)-7-(4-methylpiperazine-1-carbonyl)-9H-carbazole-1-carboxamide], the IC50 turned out to be 4.5 µM. Regarding `CN1CCN(C(=O)c2ccc3c(c2)[nH]c2c(C(N)=O)ccc(-c4cc(F)ccc4F)c23)CC1` [Example 2-12, 4-(2,5-difluorophenyl)-7-(4-methylpiperazine-1-carbonyl)-9H-carbazole-1-carboxamide], the IC50 was determined as 0.016 µM. Then `Cc1c(NC(=O)c2ccc(F)cc2)cccc1-c1ccc(C(N)=O)c2[nH]c3cc(NC(=O)[C@H](C)N)ccc3c12` [Example 57-3, 7-((S)-2-aminopropanamido)-4-(3-(4-fluorobenzamido)-2-methylphenyl)-9H-carbazole-1-carboxamide], with 0.0021 µM; and `Cc1c(NC(=O)c2ccc(F)cc2)cccc1-c1ccc(C(N)=O)c2[nH]c3cc(C(=O)N4CCN(CCO)CC4)ccc3c12` [Example 24-17, 4-(3-(4-fluorobenzamido)-2-methylphenyl)-7-(4-(2-hydroxyethyl)piperazine-1-carbonyl)-9H-carbazole-1-carboxamide (prepared as the TFA salt)], with 0.015 µM. Turning to `Cc1c(NC(=O)c2ccc(F)cc2)cccc1-c1ccc(C(N)=O)c2[nH]c3cc(CN4CCCC4)ccc3c12` [Example 39-4], the IC50 came to 0.0017 µM. On to `Cc1c(-c2ccc(C(N)=O)c3[nH]c4c(c23)CCC(C(=O)NCCCN(C)C)C4)cccc1N1Cc2ccccc2C1=O` (centres unmarked) [Example 3-101], for which the IC50 was found to be 0.018 µM. Then `Cc1ccc2c(c1)C(=O)N(c1cccc(-c3ccc(C(N)=O)c4[nH]c5cc(N6CCCC6=O)ccc5c34)c1C)C2` [Example 66-16], with 0.002 µM; and `Cc1c(NC(=O)c2ccc(F)cc2)cccc1-c1ccc(C(N)=O)c2[nH]c3cc(C(=O)Nc4ccc(F)cc4)ccc3c12` [Example 24-34, 4-(3-(4-fluorobenzamido)-2-methylphenyl)-N^7-(4-fluorophenyl)-9H-carbazole-1,7-dicarboxamide (prepared as the TFA salt)], with 0.41 µM; and `CN1CCN(C(=O)c2ccc3c(c2)[nH]c2c(C(N)=O)ccc(-c4cc(NC(=O)c5ccc(F)cc5)ccn4)c23)CC1` [Example 2-43, 4-(4-(4-fluorobenzamido)pyridin-2-yl)-7-(4-methylpiperazine-1-carbonyl)-9H-carbazole-1-carboxamide], with 0.52 µM. Then `Cc1c(-c2ccc(C(N)=O)c3[nH]c4c(c23)CCC(C(=O)N2CCN(C)CC2)C4)cccc1N1Cc2ccccc2C1=O` (centres unmarked) [Example 3-122], with 0.018 µM.

As for `Cc1c(-c2ccc(C(N)=O)c3[nH]c4c(c23)CCC(CO)C4)cccc1N1C(=O)c2ccc(C(C)(C)C)cc2C1=O` (centres unmarked) [Example 31-2, 5-(3-(5-tert-butyl-1,3-dioxoisoindolin-2-yl)-2-methylphenyl)-2-(hydroxymethyl)-2,3,4,9-tetrahydro-1H-carbazole-8-carboxamide], the 50% inhibitory concentration (IC50) is 0.7 µM. Next, `Cc1nc(N)sc1-c1ccc(C(N)=O)c2[nH]c3c(c12)CCC(C(=O)NC1CCOCC1)C3` (centres unmarked) [Example 4-3, 5-(2-amino-4-methylthiazol-5-yl)-N^2-(tetrahydro-2H-pyran-4-yl)-2,3,4,9-tetrahydro-1H-carbazole-2,8-dicarboxamide]: 0.39 µM; `CN1CCN(C(=O)c2ccc3c(c2)[nH]c2c(C(N)=O)ccc(N4CCCCC4=O)c23)CC1` [Example 20-1, 7-(4-methylpiperazine-1-carbonyl)-4-(2-oxopiperidin-1-yl)-9H-carbazole-1-carboxamide]: 0.51 µM. As to `Cc1ccc(C(=O)Nc2cccc(-c3ccc(C(N)=O)c4[nH]c5cc(C(=O)N6CCN(C)CC6)ccc5c34)c2C)cc1` [Example 5-58, 4-(2-methyl-3-(4-methylbenzamido)phenyl)-7-(4-methylpiperazine-1-carbonyl)-9H-carbazole-1-carboxamide (prepared as the TFA salt)], the IC50 was determined as 0.0022 µM. Consider `Cc1c(Nc2nccc3ccccc23)cccc1-c1ccc(C(N)=O)c2[nH]c3cc(C(=O)N4CCN(C)CC4)ccc3c12` [Example 11-1, 4-(3-(isoquinolin-1-ylamino)-2-methylphenyl)-7-(4-methylpiperazine-1-carbonyl)-9H-carbazole-1-carboxamide], for which the IC50 stood at 0.015 µM. As to `NC(=O)c1ccc(-c2cc(C(=O)O)ccc2F)c2c1[nH]c1cc(C(=O)N3CCOCC3)ccc12` [Example 2-16, 3-(1-carbamoyl-7-(morpholine-4-carbonyl)-9H-carbazol-4-yl)-4-fluorobenzoic acid], the IC50 was determined as 0.016 µM. Next, `Cc1ccc2c(Nc3cccc(-c4ccc(C(N)=O)c5[nH]c6cc(N7CCCC7=O)ccc6c45)c3C)ncnc2c1` [Example 79-2]: 0.0169 µM; `CN1CCN(C(=O)c2ccc3c(c2)[nH]c2c(C(N)=O)ccc(-c4cccc5[nH]c(C(=O)N6CCCC6)cc45)c23)CC1` [Example 3-75]: 0.92 µM. Consider `Cc1c(-c2ccc(C(N)=O)c3[nH]c4cc(C(=O)N5CCN(C)CC5)ccc4c23)cccc1N1CCCS1(=O)=O` [Example 12-1, 4-(3-(1,1-dioxoisothiazolidin-2-yl)-2-methylphenyl)-7-(4-methylpiperazine-1-carbonyl)-9H-carbazole-1-carboxamide], for which the IC50 is 0.018 µM. Then `CC(C)(O)C1CCc2c([nH]c3c(C(N)=O)ccc(Br)c23)C1` (centres unmarked) [Example 73-1, 5-bromo-2-(2-hydroxypropan-2-yl)-2,3,4,9-tetrahydro-1H-carbazole-8-carboxamide], with 0.54 µM; and `CCOc1ccc(F)c(-c2ccc(C(N)=O)c3[nH]c4cc(C(=O)N5CCN(C)CC5)ccc4c23)c1` [Example 3-39], with 0.016 µM; and `CN1CCN(C(=O)c2ccc3c(c2)[nH]c2c(C(N)=O)ccc(-c4cccc5c4oc4ccccc45)c23)CC1` [Example 3-49], with 0.69 µM.

Consider `Cc1c(-c2ccc(C(N)=O)c3[nH]c4cc(C(C)(C)O)ccc4c23)cccc1-n1ccn2ccnc2c1=O` [Example 76-2, 7-(2-hydroxypropan-2-yl)-4-(2-methyl-3-(8-oxoimidazo[1,2-a]pyrazin-7(8 H)-yl)phenyl)-9H-carbazole-1-carboxamide], for which the half-inhibitory concentration (IC50) worked out at 0.0013 µM.

Consider `Cc1c(NC(=O)c2ccc(F)cc2)cccc1-c1ccc(C(N)=O)c2[nH]c3cc(NC(=O)CN)ccc3c12` [Example 57-37], for which the IC50 came to 0.0018 µM.
